Laboratory results as given in patent US20120107428A1, “REPELLENTS FOR PESTIFEROUS SOCIAL WASPS” (Sterling International Inc., priority 2010, published 2012).

What was measured:
[1] = tested on: Yellowjackets (mainly Vespula pensylvanica (ca. 90%), plus V. vulgaris, V. germanica, and Dolichovespula maculata); assay: Field trapping, Rescue W•H•Y traps baited with attractant AA/2MB: captures of yellowjackets; format: in vivo; conditions: N 9
Description: (§1) Eleven field trapping experiments were carried out from late August to mid-October 2009 in residential and woody areas around Spokane, Wash., USA, mostly using the trap known by the designation Rescue® W•H•Y (except on one occasion that Rescue® Reusable Yellowjacket Traps were used for a natural food attractant; see below for details). The commercial W•H•Y trap has a top chamber and a bottom chamber and is described in U.S. Patent Application Publication No. 2009/0151228. The top chamber is baited with two attractants—one of which is a solid contained in a vial (2-methyl-1-butanol), and the other is a liquid mixed with water (acetic acid). The bottom chamber is baited with a liquid attractant (heptyl butyrate) poured onto a cotton pad. Separation of the two types of attractants (otherwise antagonistic to each other when released from the same chamber) in two chambers creates two focal attraction sources from one trap for different species of wasps, hornets, and yellowjackets. […] In a special occasion, the commercial Rescue® Reusable Yellowjacket Traps were each baited with 10 g of chopped bacon (loaded into a cartridge) as a natural protein food attractant. Traps were hung 1.5-2.0 m above the ground on either fences or tree branches ca. 5 m apart between each trap and at least 15 m between sets. For each trapping experiment, three sets of traps (i.e., three physical replicates of each treatment) were deployed with their initial trap positions within each set being randomized. To minimize positional effects and obtain more replications, wasp collections and trap re-randomization were carried out when 5-10 wasps were caught in the best traps. Each replicate lasted several days depending on wasp flight activity. Captured wasps were removed from the traps and kept in the zip-bags before returning to the laboratory for recording of the species, gender status, and catch. Repellent candidates (individuals or mixtures) were released from polyethylene bags (3×5 cm; with a fabric felt) with various thicknesses from 2-12 mil (see release rates listed in tables); they were employed inside the same trap chamber as the attractant.
(§2) Experiment 1 tested five individual essential oils (pennyroyal, lemongrass, peppermint, clove, and citronella) and two known mosquito repellents (i.e., major components of catnip oil), E/Z-nepetalactone and Z/E-nepetalactone plus a blank control against a mixture of attractant [acetic acid (AA) and 2-methyl-1-butanol (2 MB)] using the W•H•Y traps (both attractant and repellent candidates were released from the top chamber) from for eight consecutive days from August to early September. Experiment 2 tested nine individual essential oils (ylang ylang, vetiver, myrrh, patchouli, geranium, eucalyptus, camphor, spearmint, and wintergreen) plus a blank control against a mixture of attractant (AA+2 MB) using the W•H•Y traps (both attractant and repellent candidates were released from the top chamber) for eight consecutive days from late August to early September. Experiment 3 tested seven individual essential oils (Roman chamomile, sage, fennel seed, rosemary, thyme, anise, and lavender) plus a blank control against a mixture of attractant (AA+2 MB) using the W•H•Y traps (both attractant and repellent candidates were released from the top chamber) for eight consecutive days from late August to early September. Experiment 4 tested two essential oil mixtures (3EO-mix: clove, geranium, and lemongrass in ca. 1:1:1 ratio; and 4EO-mix: clove, geranium, lemongrass, and rosemary in ca. 1:1:1:1 ratio) plus a blank control against a mixture of attractant (AA+2 MB) using the W•H•Y traps (both attractant and repellent candidates were released from the top chamber) for 13 consecutive days in September; the essential oil mixtures alone without attractant were tested in the same experiment.

[2] = tested on: Paper wasps (mainly Polistes dominulus, plus a few of P. aurifer); assay: Field trapping, Rescue W•H•Y traps baited with attractant AA/2MB: captures of paper wasps; format: in vivo; conditions: N 9
Description: as §1, §2

[3] = tested on: worker antennae of Vespula pensylvanica, Dolichovespula maculata, Polistes dominulus, and P. aurifer; assay: GC-EAD/MS analysis of SPME headspace samples of essential oils: antennal responses; conditions: for antennal (EAD) response to component of geranium oil: V. pensylvanica, D. maculata, P. dominulus, or P. aurifer antennae; for antennal (EAD) response to component of rosemary oil: V. pensylvanica and D. maculata antennae, FIG. 3
Description: Headspace volatiles from greater than 10 types of essential oils (1 ml each in a closed 20 ml glass vial) were sampled via Solid-Phase Micro-Extraction (SPME) (CAR/PDMS, 85 μm, Supelco, Bellefonte, Pa.) for 20-30 sec before GC-EAD and GC-MS analyses.
Paper wasp [European paper wasp (Polistes dominulus) or golden paper wasp (P. aurifer)] and yellowjacket [Western yellowjacket (Vespula pensylvanica) or Bald-faced hornet (Dolichovespula maculata)] workers for electrophysiological study were collected from their nests and kept alive at 4° C. before testing.
SPME samples of the various essential oils were injected splitless into a Varian CP-3800 GC equipped with a polar column (HP-INNOWAX; 30 m×0.53 mm×1.0 μm film thickness; Agilent Technologies, Wilmington, Del., USA) and a 1:1 effluent splitter that allowed simultaneous flame ionization detection (FID) and electroantennographic detection (EAD) of either a yellowjacket or paper wasp worker antenna to the separated volatile compounds. Helium was used as the carrier gas, and the injector and detector temperatures were 250° C. and 300° C., respectively. Column temperature was 50° C. for 1 min, rising to 240° C. at 10° C./min, and then held for 10 min. The outlet for the EAD was held in a humidified air stream flowing at 0.5 m/sec over the antennal preparation. EAD recordings were made using silver wire-glass capillary electrodes filled with Beadle-Ephrussi Ringer on freshly cut antennae. The antennal signals were stored and analyzed on a PC equipped with a serial IDAC interface box and the program EAD ver. 2.5 (Syntech, Hilversum, The Netherlands).
Compounds were identified by comparison of retention times with those of authentic standards and with mass spectra of standards.

[4] = tested on: vespid wasps (paper wasps, hornets and yellowjackets); assay: Field trapping experiments, repellency stated for vespid wasps as a whole (yellowjackets and paper wasps; summaries); format: in vivo, Vespula pensylvanica; Polistes dominulus; conditions: for activity at doses tested: Experiment 9; for repellency on either yellowjackets or paper wasps or both to the attractant AA/2 MB: Experiments 1-3, late August to early September
Description: as §1, §2

[5] = tested on: Yellowjackets (mainly Vespula pensylvanica (ca. 90%), plus V. vulgaris, V. germanica, and Dolichovespula maculata); assay: Field trapping, Rescue W•H•Y traps baited with attractant heptyl butyrate: captures of yellowjackets; format: in vivo; conditions: Table 5, Experiment 5; treatment alone (essential oil mix alone, or attractant HB alone); 13 days in September; N 18
Description: (§3) Eleven field trapping experiments were carried out from late August to mid-October 2009 in residential and woody areas around Spokane, Wash., USA, mostly using the trap known by the designation Rescue® W•H•Y (except on one occasion that Rescue® Reusable Yellowjacket Traps were used for a natural food attractant; see below for details). The commercial W•H•Y trap has a top chamber and a bottom chamber and is described in U.S. Patent Application Publication No. 2009/0151228. The top chamber is baited with two attractants—one of which is a solid contained in a vial (2-methyl-1-butanol), and the other is a liquid mixed with water (acetic acid). The bottom chamber is baited with a liquid attractant (heptyl butyrate) poured onto a cotton pad. Separation of the two types of attractants (otherwise antagonistic to each other when released from the same chamber) in two chambers creates two focal attraction sources from one trap for different species of wasps, hornets, and yellowjackets. In order to test potential repellency of essential oils or EAD-active synthetic candidate compounds on different types of attractants, W•H•Y traps were baited with either a top attractant or a bottom attractant depending on the experiments. […]

[6] = tested on: Paper wasps (mainly Polistes dominulus, plus a few of P. aurifer); assay: Field trapping, Rescue W•H•Y traps baited with attractant heptyl butyrate: captures of paper wasps; format: in vivo
Description: as §3

[7] = tested on: yellowjackets (mainly Vespula pensylvanica); assay: Field observation of landing and approaching of yellowjackets at heptyl butyrate attractant source (experiment 7); format: in vivo; conditions: Experiment 7, FIG. 1, attractant alone, 15 minutes observation replicates
Description: In addition, the repellency of the essential oil mixture (3EO-mix; at 0 cm and 50 cm above the heptyl butyrate attractant) on the landing behavior of yellowjackets was field observed (as experiment 7) on a September day for roughly 1.5 hours in Spokane, Wash. This observation test was conducted in the sun by setting up in a line east to west four portable light gray folding tables (45.7×66.0×67.3 cm) in a level area of grass near a vineyard. These tables were placed approximately 3 m apart. Chairs were set up approximately 4 m away from the tables for the scientists conducting the observations. On each table a black lab support stand was used with a movable metal bar in the horizontal direction clamped to the support stand for placing a repellent PE-bag dispenser (2 ml of 3EO-mix) or blank PE-bag at either 0 cm or 50 cm above the attractant, heptyl butyrate. A white towel was used to cover the black base of the support stand to provide a uniform color. A circle felt pad (3.5 cm diameter) loaded with 3 ml of heptyl butyrate as attractant or left blank for a negative control in a Petri dish (9 cm diameter) was placed on the base of the stand. […]
Trap catch data (number of wasps/trap/visit) and landing/approaching numbers were transformed by log (X+1) and the transformed means were analyzed by ANOVA, followed by the Duncan's multiple-range test (SPSS 16.0 for Windows) at α=0.05.

[8] = Table 8, Experiment 9, attractant AA/2MB alone (row AA/2MB) or plus chemical, 13 days in September
[9] = Table 1, Experiment 1, attractant AA/2MB alone (row AA/2MB) or plus essential oil/chemical in same trap chamber, eight days late August to early September
[10] = Table 10, Experiment 11, attractant AA/2MB alone (row AA/2MB) or plus chemical, 16 days in October
[11] = Table 9, Experiment 10, attractant AA/2MB alone (row AA/2MB) or plus chemical, 18 days end of September through mid-October

In the case of `CC(C)=CCCC(C)CCO` (stereo not drawn) [β-Citronellol, β-citronellol], the “Mean/trap/visit ± SE Yellowjackets” value [1, 8] is reported as 36.2 ± 6.8 b wasps/trap/visit, the “Mean/trap/visit ± SE Paper wasps” value [2, 8] is reported as 5.1 ± 1.6 b wasps/trap/visit and the “antennal (EAD) response to component of geranium oil” value [3] is reported as “significant and consistent EAD-responses”. For the same compound, the “activity at doses tested” value ([4]; AA/2 MB) was “inactive”.

For Z/E-nepetalactone [ZE-Neptalactone], the “Mean/trap/visit ± SE Yellowjackets” value [1, 9] was 52.1 ± 16.2 cd wasps/trap/visit, the “Mean/trap/visit ± SE Paper wasps” value [2, 9] was 11.3 ± 4.5 c wasps/trap/visit and the “repellency on either yellowjackets or paper wasps or both to the attractant AA/2 MB” value [4] was “partially significant repellency”.

`COc1ccc(C)cc1` [4-Methylanisole, 4-methylanisole] was tested, and the “Mean/trap/visit ± SE Yellowjackets” value [1, 10] was 10.0 ± 5.0 b wasps/trap/visit, the “Mean/trap/visit ± SE Paper wasps” value [2, 10] was 0.9 ± 0.5 a wasps/trap/visit and the “antennal (EAD) response to component of ylang ylang oil” value ([3]; V. pensylvanica and P. dominulus worker antennae) was “strong and repeatable antennal responses”. For the same compound, the “repellency to either yellowjackets or paper wasps” value ([4]; Experiment 11, AA/2 MB, at 90 mg/day release) was “did not show significant repellency”.

With `CCCCCCCOC(=O)CCC` [HB, heptyl butyrate] the “Mean/trap/visit ± SE Yellowjackets” value [5] was 39.7 ± 13.6 b wasps/trap/visit, the “attraction of paper wasps to heptyl butyrate” value ([6]; Experiment 5) was “not attracted” and the “Mean/trap/visit ± SE Paper wasps” value ([6]; Table 5, Experiment 5, treatment alone (essential oil mix alone, or attractant HB alone), 13 days in September, N 18) was 1.3 ± 0.6 a wasps/trap/visit. For the same compound, the “average number of yellowjackets landing” value [7] was 5 and the “average number of yellowjackets approaching” value ([7]; within 0.5 m) was 12.

In the case of `CC1=CCC(C(C)(C)O)CC1` (stereo not drawn) [α-Terpineol, α-terpineol], the “Mean/trap/visit ± SE Yellowjackets” value [1, 8] is reported as 21.9 ± 5.7 b wasps/trap/visit, the “Mean/trap/visit ± SE Paper wasps” value [2, 8] is reported as 2.2 ± 0.9 ab wasps/trap/visit and the “antennal (EAD) response to component of rosemary oil” value [3] is reported as “significant EAD-responses”. The “activity at doses tested” value ([4]; AA/2 MB) was “inactive”.

In the case of E/Z-nepetalactone [EZ-Neptalactone], the “Mean/trap/visit ± SE Yellowjackets” value [1, 9] is reported as 11.2 ± 3.6 b wasps/trap/visit, the “Mean/trap/visit ± SE Paper wasps” value [2, 9] is reported as 3.2 ± 1.1 bc wasps/trap/visit and the “repellency on either yellowjackets or paper wasps or both to the attractant AA/2 MB” value [4] is reported as “partially significant repellency”.

For `CC1=CCC(O)(C(C)C)CC1` (stereo not shown) [4-Terpineol, 4-terpineol], the “Mean/trap/visit ± SE Yellowjackets” value [1, 8] was 23.3 ± 5.6 b wasps/trap/visit, the “Mean/trap/visit ± SE Paper wasps” value [2, 8] was 2.0 ± 0.7 ab wasps/trap/visit and the “antennal (EAD) response to component of rosemary oil” value [3] was “significant EAD-responses”. The “activity at doses tested” value ([4]; AA/2 MB) was “inactive”.

With `CC(C)=CCC/C(C)=C/CO` [Geraniol, geraniol] the “Mean/trap/visit ± SE Yellowjackets” value [1, 11] was 21.8 ± 6.0 cd wasps/trap/visit, the “Mean/trap/visit ± SE Paper wasps” value [2, 11] was 2.9 ± 0.9 b wasps/trap/visit and the “antennal (EAD) response to component of geranium oil” value [3] was “significant and consistent EAD-responses”. The “repellency at the dose tested” value ([4]; Experiment 10, AA/2 MB) was “not different from the attractant alone”.
